Assay results: article PMC2941209 (Synapse (New York, N.Y.), 2010)
Where “and” joins values, the source holds several entries; their conditions need not be identical. Equal entries are not always repeated. Structures can show the parent of a compound that is named as a salt.

What was measured:
SERT [1] = target: T1, SERT (Rattus norvegicus, UniProt P31652); assay: [3H]5-HT release assay; settings: for Emax [3H]5-HT release, 15 μM EG-1-149 / Emax [3H]5-HT release, NO EG-1-149: ±SD (n=6); for EMAX substrate-induced [3H]5-HT release, CONTROL: substrate alone (control), 100% = release by 100 μM tyramine, ±SD
T1 sequence (P31652 whole entry): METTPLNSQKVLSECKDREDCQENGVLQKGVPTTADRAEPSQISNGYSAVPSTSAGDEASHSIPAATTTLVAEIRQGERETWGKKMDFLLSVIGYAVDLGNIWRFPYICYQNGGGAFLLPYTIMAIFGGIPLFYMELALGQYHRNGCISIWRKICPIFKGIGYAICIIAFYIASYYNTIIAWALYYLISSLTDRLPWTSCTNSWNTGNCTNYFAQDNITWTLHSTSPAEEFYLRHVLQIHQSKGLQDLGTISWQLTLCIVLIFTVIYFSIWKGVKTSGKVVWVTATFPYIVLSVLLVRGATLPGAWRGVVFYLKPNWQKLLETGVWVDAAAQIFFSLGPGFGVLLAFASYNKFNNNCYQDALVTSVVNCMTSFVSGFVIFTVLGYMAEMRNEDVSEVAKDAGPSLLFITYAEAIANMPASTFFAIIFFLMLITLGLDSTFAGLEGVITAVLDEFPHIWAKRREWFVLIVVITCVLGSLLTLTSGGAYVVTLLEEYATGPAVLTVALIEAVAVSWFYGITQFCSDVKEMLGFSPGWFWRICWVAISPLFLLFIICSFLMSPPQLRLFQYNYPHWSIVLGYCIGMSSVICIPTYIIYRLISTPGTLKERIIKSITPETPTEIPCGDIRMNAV

SERT [2] = target: T1, SERT; assay: [3H]5-HT uptake inhibition assay; type: biochemical
DAT = settings: read-out: IC50 reuptake inhibition, DAT; ref Greiner et al., 2003; cited from earlier work
SERT [3] = target: T1, SERT; assay: biochemical
[4] = 1 μM test compound, substrate MDMA

Compound: CNC(C)Cc1ccc2c(c1)OCO2 (racemic) [(±)-MDMA]
- EC50 (SERT [1]): 88 ± 10 nM
- Emax (SERT [1]; read-out: EMAX substrate-induced [3H]5-HT release, CONTROL): 105%

Compound: CC(N)Cc1cccc(C(F)(F)F)c1 (single isomer, unassigned; (+)) [(+)-Norfenfluramine]
- Emax [3H]5-HT release, 15 μM EG-1-149 (SERT [1]; release time 5 min): 81 ± 3 %I
- Emax [3H]5-HT release, 15 μM EG-1-149 (SERT [1]; release time 5 min, listed as (+)-norfenfluramine): 81±3 %I
- Emax [3H]5-HT release, NO EG-1-149 (SERT [1]; release time 5 min): 114 ± 8 %I
- Emax [3H]5-HT release, 15 μM EG-1-149 (SERT [1]; release time 15 min): 97 ± 4 %I
- Emax [3H]5-HT release, 15 μM EG-1-149 (SERT [1]; release time 15 min, listed as (+)-norfenfluramine): 97±4 %I
- Emax [3H]5-HT release, NO EG-1-149 (SERT [1]; release time 15 min): 111 ± 5 %I
- EMAX substrate-induced [3H]5-HT release, CONTROL (SERT [1]): 113±6%

Compound: NCCc1c[nH]c2ccc(O)cc12 [5-HT]
- EMAX substrate-induced [3H]5-HT release, CONTROL (SERT [1]): 85±1%

Compound: Brc1ccc(CN2CCC(CCOC(c3ccccc3)c3ccccc3)CC2)cc1 [EG-1-149, 4-(2-(Benzhydryloxy)ethyl)-1-(4-bromobenzyl)piperidine oxalate]
- IC50 (SERT [2]): 1760 nM
- IC50 (DAT): 5.1 ± 0.4 nM
- Ki (SERT [3]): 713 nM and 1180 nM and 4820 nM and 2900 nM and 1770 nM

Compound: Cc1cc(NC(=O)Nc2ccc3c(ccn3C)c2)sn1 [SB204741, N-(1-Methyl-1H-indol-5-yl)-N′-(3-methylisothiazol-5-yl)urea]
- IC50 (SERT [2]): 38000 nM
- effect on EMAX of MDMA-induced [3H]5-HT release (SERT [1]; [4]): without altering the EMAX values
- rightward shift of the MDMA dose-response curve ([3H]5-HT release) (SERT [1]; [4]): 3–4 fold

Compound: Clc1cccc(N2CCNCC2)c1 [mCPP, meta-chlorophenylpiperazine]
- EMAX substrate-induced [3H]5-HT release, CONTROL (SERT [1]): 94±3% and 91±1%
